Data: patent US20090286722A1 (priority 2005, published 2009)

Assays:
dipeptidyl peptidase IV = dipeptidyl peptidase IV (Sus scrofa, UniProt P22411); assay: DPP IV degradation, % intact peptide by HPLC; format: in vitro ADME, porcine; settings: pig, purified porcine dipeptidyl peptidase IV (DPP IV), 37° C., pH 7.8
Experimental: (§1) HPLC peak area data were used to calculate the percentage intact peptide remaining at the various time points during the incubation.

[1] = target: purified porcine dipeptidyl peptidase IV (Sus scrofa, UniProt P22411); assay: DPP IV degradation, % intact peptide by HPLC; format: in vitro ADME; settings: 37° C., pH 7.8
Chain of purified porcine dipeptidyl peptidase IV (P22411 whole entry): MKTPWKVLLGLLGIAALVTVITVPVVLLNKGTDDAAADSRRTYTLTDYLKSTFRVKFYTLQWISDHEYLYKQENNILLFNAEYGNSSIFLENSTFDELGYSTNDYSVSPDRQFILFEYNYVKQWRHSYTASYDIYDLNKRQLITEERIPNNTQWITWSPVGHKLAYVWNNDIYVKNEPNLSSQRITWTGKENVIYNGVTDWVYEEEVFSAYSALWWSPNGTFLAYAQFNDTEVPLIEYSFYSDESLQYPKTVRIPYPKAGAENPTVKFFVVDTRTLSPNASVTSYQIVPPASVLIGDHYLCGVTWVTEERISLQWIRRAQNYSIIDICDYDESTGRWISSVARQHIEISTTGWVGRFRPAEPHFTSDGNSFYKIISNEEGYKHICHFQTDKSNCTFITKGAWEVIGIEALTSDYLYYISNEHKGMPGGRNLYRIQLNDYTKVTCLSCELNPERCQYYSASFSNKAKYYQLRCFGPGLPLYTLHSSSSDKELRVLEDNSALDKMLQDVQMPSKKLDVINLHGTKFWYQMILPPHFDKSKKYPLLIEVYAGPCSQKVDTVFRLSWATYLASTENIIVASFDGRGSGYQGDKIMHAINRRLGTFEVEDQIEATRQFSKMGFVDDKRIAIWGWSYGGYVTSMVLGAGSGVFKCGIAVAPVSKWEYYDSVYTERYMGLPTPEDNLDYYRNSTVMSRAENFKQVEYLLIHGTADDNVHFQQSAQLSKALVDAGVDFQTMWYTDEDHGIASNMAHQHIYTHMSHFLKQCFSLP
Experimental: as §1

human GIP receptor = target: T1, human GIP receptor (Homo sapiens, UniProt P48546); assay: Intracellular cAMP production in GIP-receptor transfected CHL cells; format: cell-based
T1 construct: expressed in transfected cells; host or cells: Chinese hamster lung (CHL) fibroblasts
T1 sequence (P48546 22-466): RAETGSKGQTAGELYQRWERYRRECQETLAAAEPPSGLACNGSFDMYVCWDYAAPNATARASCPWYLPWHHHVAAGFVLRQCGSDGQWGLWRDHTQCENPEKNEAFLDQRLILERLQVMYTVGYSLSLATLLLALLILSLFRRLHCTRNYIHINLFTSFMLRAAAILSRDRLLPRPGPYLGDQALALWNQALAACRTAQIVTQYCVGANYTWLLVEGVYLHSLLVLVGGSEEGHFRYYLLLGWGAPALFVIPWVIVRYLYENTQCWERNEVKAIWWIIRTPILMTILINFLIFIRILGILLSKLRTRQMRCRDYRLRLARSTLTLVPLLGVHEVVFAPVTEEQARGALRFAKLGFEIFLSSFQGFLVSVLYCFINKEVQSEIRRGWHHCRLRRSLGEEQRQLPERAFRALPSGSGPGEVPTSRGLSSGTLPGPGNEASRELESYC
Experimental: The cells were then incubated at 37° C. for 6 hours in 1 ml DMEM, supplemented with 0.5% (w/v) BSA and subsequently washed twice with HBS buffer (Hanks Buffered Saline solution). […] The medium was subsequently removed and the cells lysed with 1 ml of 5% trichloroacetic acid containing 0.1 mM unlabelled cAMP and 0.1 mM unlabelled ATP. The intracellular tritiated cAMP was then separated on Dowex and alumina exchange resins (Life Science Research, Larne, UK).

D3 mouse ES cell line = assay: Differentiation of D3 mouse ES cells to beta cell phenotype, insulin release and insulin/C-peptide content; format: cell-based
Experimental: The D3 mouse ES cell line was routinely cultured on tissue culture plastic coated with 0.1% (w/v) gelatine in DMEM (25 mM glucose) containing 15% foetal bovine serum (FBS), 2 mM glutamine, 50 U/ml penicillin/streptomycin, non-essential amino acids, 0.1 mM β-mercaptoethanol, and 1000 U/ml LIF (leukaemia inhibitory factor). Medium was changed daily and cultures were passaged every 2 days onto fresh geletin-coated plates at a split ratio of 1:5. The cells were passaged by washing the cultures with phosphate-buffer saline and then detached from the plate with a trypsin (2.5 g/L)-EDTA (1 mM) solution. Prior to seeding into new flasks the ES cells were dissociated to single cells suspensions by repeated pipetting.
For differentiation of D3 mouse ES cells, an established protocol was used (Lumelsky, N. et al., 2001, Science 292(5520):1389-94). Briefly, LIF was removed from the culture medium, EBs (embryonic bodies) were then formed by growing the cells as non-adherent clusters. For the selection of nestin positive precursor cells, medium was changed to serum free ITSFn medium and for expanding these progenitors, cells were incubated in N2 serum free medium for 7 days (stage 4) and then differentiated into insulin-containing cell clusters by incubation in N2 serum free medium without bFGF, supplemented with 10 mM nicotinamide for 7 days (stage 5) (control protocol). […] The differentiated cells were harvested at the end of stage 4 and 5 and samples were seeded onto 24 well plates for insulin and C-peptide studies. Insulin release from differentiated cells from stages 4 and 5 were determined using cell monolayers. The cells were harvested with the aid of trypsin/EDTA (Gibco), seeded into 24-multiwell plates (Nunc, Rosklide, Denmark) at a density of 0.1×10^6 cells per well, and allowed to attach overnight.
Prior to the acute test, cells were washed three times and preincubated for 40 minutes at 37° C. in a 1.0 ml Krebs Ringer bicarbonate buffer (115 mM NaCl, 4.7 mM KCl, 1.28 mM CaCl2, 1.2 mM KH2PO4, 1.2 mM MgSO4, 10 mM NaHCO3, 5 g/l bovine serum albumin, pH 7.4) supplemented with 1.1 mM glucose. Test incubations were performed for 20 minutes at 37° C. using the same buffer supplemented with 5.6 mM glucose in the absence (control) and presence of various test agents as indicated in the Figures. After incubation, aliquots of buffer were removed and stored at −20° C. for insulin radioimmunoassay. For assessment of cellular hormone contents, the buffer was completely removed and […] of acid-ethanol solution (1.5% (v/v) HCl, 75% (v/v) ethanol, 23.5% (v/v) H2O) was added. The cells were disrupted with the aid of a pasture pipette and incubated overnight at 4° C. prior to centrifugation (900 rpm) and stored at −20° C.

ob/ob mice = assay: Acute glucose lowering and insulin release, peptide given i.p. with glucose to 18 hour fasted ob/ob mice
Experimental: Obese diabetic (ob/ob) mice derived from the colony maintained at Aston University, UK (23) were used at 12-16 weeks of age. […] Drinking water and standard rodent maintenance diet (Trouw Nutrition, Cheshire, UK) were freely available.
Food intake and body weight were recorded daily from 5 days before commencement of the treatment regimes. Plasma glucose and insulin concentrations (10:00 h) were monitored at 2-4 day intervals. […] All acute tests were commenced at 10:00 h. […] Serum samples were taken for determination of glucagon concentrations. All other blood samples were collected from the cut tip of the tail vein of conscious mice into chilled fluoride/heparin coated glucose microcentrifuge tubes (Sarstedt, Nümbrecht, Germany) at the times indicated in the Figures. Blood samples were immediately centrifuged using a Beckman microcentrifuge (Beckman Instruments, Galway, Ireland) for 30 seconds at 13,000×g. The resulting plasma was then aliquoted into fresh tubes and stored at −20° C. prior to glucose and insulin determinations.

[2] = culture media supplemented with 1×10^-6 M peptide, Stage 4
[3] = culture media supplemented with 1×10^-6 M peptide, Stage 5

Chain of dipeptidyl peptidase IV (P22411 whole entry): as the sequence (P22411 whole entry) above

Compound: CCCCCCCCCCCCCCCC(=O)NCCCC[C@H](NC(=O)[C@H](CC(=O)O)NC(=O)[C@H](CCSC)NC(=O)[C@H](C)NC(=O)[C@@H](NC(=O)[C@H](CO)NC(=O)[C@H](Cc1ccc(O)cc1)NC(=O)[C@H](CC(=O)O)NC(=O)[C@H](CO)NC(=O)[C@@H](NC(=O)[C@H](Cc1ccccc1)NC(=O)[C@@H](NC(=O)CNC(=O)[C@H](CCC(=O)O)NC(=O)[C@H](C)NC(=O)[C@@H](N)Cc1ccc(O)cc1)[C@@H](C)O)[C@@H](C)CC)[C@@H](C)CC)C(=O)N[C@H](C(=O)N[C@@H](Cc1c[nH]cn1)C(=O)N[C@@H](CCC(N)=O)C(=O)N[C@@H](CCC(N)=O)C(=O)N[C@@H](CC(=O)O)C(=O)N[C@@H](Cc1ccccc1)C(=O)N[C@H](C(=O)N[C@@H](CC(N)=O)C(=O)N[C@@H](Cc1c[nH]c2ccccc12)C(=O)N[C@@H](CC(C)C)C(=O)N[C@@H](CC(C)C)C(=O)N[C@@H](C)C(=O)N[C@@H](CCC(N)=O)C(=O)N[C@@H](CCCCN)C(=O)NCC(=O)N[C@@H](CCCCN)C(=O)N[C@@H](CCCCN)C(=O)N[C@@H](CC(N)=O)C(=O)N[C@@H](CC(=O)O)C(=O)N[C@@H](Cc1c[nH]c2ccccc12)C(=O)N[C@@H](CCCCN)C(=O)N[C@@H](Cc1c[nH]cn1)C(=O)N[C@@H](CC(N)=O)C(=O)N[C@H](C(=O)N[C@H](C(=O)N[C@@H](CCC(N)=O)C(=O)O)[C@@H](C)O)[C@@H](C)CC)C(C)C)[C@@H](C)CC [GIP(LysPAL^16)]
- remaining at 2 h, 2 mM (dipeptidyl peptidase IV; 2 h incubation with DPP IV (5 mU), read-out: % Intact peptide remaining after time (h) 2): 100%
- remaining at 8 h, 2 mM (dipeptidyl peptidase IV; 8 h incubation with DPP IV (5 mU), read-out: % Intact peptide remaining after time (h) 8): 100%
- remaining at 24 h, 2 mM (dipeptidyl peptidase IV; 24 h incubation with DPP IV (5 mU), read-out: % Intact peptide remaining after time (h) 24): 100%
- % Intact peptide remaining after time (h) 0 ([1]; 0 h incubation with DPP IV (5 mU)): 100%
- % Intact peptide remaining after time (h) 24 ([1]; 24 h incubation with DPP IV (5 mU)): remained fully intact
- EC50 (human GIP receptor): 2.9 nM
- glucose-induced insulin release of differentiated stage 4 cells, modified versus control protocol (D3 mouse ES cell line; 1×10^-6 M peptide in media, stage 4, 0-22.0 mM glucose): significantly higher
- response of differentiated stage 5 cells to glucose (D3 mouse ES cell line; 1×10^-6 M peptide in media, stage 5): appear not respond to glucose
- increase in C-peptide content compared to control, stage 4 (D3 mouse ES cell line; 1×10^-6 M peptide, stage 4): 1.5 fold
- increase in C-peptide content compared to control, stage 5 (D3 mouse ES cell line; 1×10^-6 M peptide, stage 5): 1.3 fold
- C-Peptide content of differentiated D3 cluster cells, Stage 4 (D3 mouse ES cell line; [2]): 124.5 ± 3.13 pmol/mg protein/20 mins
- Insulin content of differentiated D3 cluster cells, Stage 4 (D3 mouse ES cell line; [2]): 9154 ± 291.1 pmol/mg protein/20 mins
- C-Peptide content of differentiated D3 cluster cells, Stage 5 (D3 mouse ES cell line; [3]): 121.9 ± 3.43 pmol/mg protein/20 mins
- Insulin content of differentiated D3 cluster cells, Stage 5 (D3 mouse ES cell line; [3]): 8532 ± 626.5 pmol/mg protein/20 mins
- plasma glucose concentrations and AUC (0-60 min) compared to glucose alone (ob/ob mice; 25 nmol/kg i.p. with glucose 18 mmol/kg): significantly reduced
- overall enhancement of insulin release over native GIP (ob/ob mice; 25 nmol/kg i.p. with glucose, insulin AUC 0-60 min): 2.4 fold
